Tests used:
[1] = system: inflorescence explants of sugarcane Q152; experiment: Regeneration from inflorescence explants; format: cell-based; details: Table 18 (b) ˜8 mm pieces of main floral axis placed laterally
Experimental: Table 18: Comparison of regeneration efficiency for different sugarcane explants. Explants were (a) 2-3 mm sections of main floral axis of inflorescence; (b) ˜8 mm sections of main floral axis placed laterally on the culture medium; (c) immature floral tissues dissociated from floral axis; and (d) whole 2-3 mm sections of inflorescence oriented “top down”. B4N10=4 μM BA+10 μM NAA; B4N40=4 μM BA+40 μM NAA; B4N60=4 μM BA+60 μM NAA; 2,4D14=14 μM 2,4,D. “Top down” orientation is as previously described. Shoot frequency legend: *1-2 shoots per explant; **3-10 shoots per explant; ***greater than […] shoots per explant.
Young bolting inflorescence “stalk” tissue enveloped in developing leaves (floral and leaf components) was harvested from above the apical meristem of Q152 or Q165 sugarcane plants. Transverse sections were made to produce 2-3 mm thin sections of the tissue.
(§1) Murashige & Skoog (MS) nutrient formulation supplemented with 30 g/L sucrose and 7.5 g/L Difco agar were used as the basal culture medium. Basal medium was enriched with different concentrations and combinations of (i) a cytokinin: 6-benzylaminopourine (BA) or kinetin (KIN); (ii) an auxin: α-napthaleneacetic acid (NAA); and (iii) anti-oxidants: citric acid (CA), ascorbic acid (AA), or dithiothreitol (DTT); depending on the experimental objective. […]

[2] = system: leaf whorl explants of sugarcane cultivar Q165; experiment: Somatic embryogenesis / shoot regeneration in leaf whorl explants; format: cell-based; details: sugarcane leaf section cultures
Experimental: Table 19: Morphogenic response of leaf whorl explants (1.0-2.0 mm thick) of sugarcane cultivar Q165 after 8 weeks of culture on MS medium supplemented with chlorophenoxyacetic acid (CPA). Ten replicates, each with 10 explants placed in top down orientation, were maintained for each treatment. Explants were cultured under dark condition for the initial 5-6 weeks and then transferred to light (16 hr/day) for further shoot/planlet development. C=Mostly non-embroygenic callus was produced.
Table 20: Morphogenic response of leaf whorl explants (1.0-2.0 mm thick) of sugarcane cultivar Q165 after 8 weeks of culture on MS mediun supplemented with chlorophenoxyacefic acid (CPA). Ten replicates, each with 10 explants placed in top down orientation, were maintained for each treatment. All cultures received 16 hr light every day.
Table 21: Shoot regeneration in 1.0-2.0 mm thick leaf whorl explants of sugarcane cultivar Q165 after 8 weeks of culture on MS medium containing 6-benzyladenine (BA), α-naphthaleneacetic acid (NAA) and cholorophenoxyacetic acid (CPA). Ten replicates, each with 10 explants placed in top down orientation, were maintained for each treatment. All cultures received 16 hr light every day. […]

[3] = system: leaf base sections of sorghum variety New Nugget; experiment: Somatic embryogenesis and shoot production in leaf base sections; format: cell-based, Sorghum bicolor L.; details: for regeneration with other hormone combinations: sorghum
From the text: Table 26: Effect of different levels of cholorophenoxyacetic acid (CPA) on somatic embryogenesis and shoot production in 1.0-2.0 mm thick leaf base sections of sorghum (Sorghum bicolor L.) variety New Nugget after 8 weeks of culture. Five to six replicates, each with 10 explants placed in “top down” orientation, were maintained for each treatment. All cultures received 16 hr light every day.
Table 27: Effect of different levels of cholorophenoxyacetic acid (CPA) and 6-benzyladenine (BA) on somatic embryogenesis and shoot production in 1.0-2.0 mm thick leaf base sections of sorghum (Sorghum bicolor l L.) variety New Nugget after 8 weeks of culture. Five to six replicates, each with 10 explants placed in “top down” orientation, were maintained for each treatment. All cultures received 16 hr light every day.
Young developing leaf sheaths (the innermost 3-4 whorls at the shoot tip) were used as the explant. Explants were preferably 1.0-2.0 mm thick transverse sections taken from the whorls. MS nutrient medium containing 3% sucrose and 7.5 g/L Davis J3 agar was used as the basal medium for all experiments. MS-based medium with several plant growth regulators was tested as a micropropagation medium.

[4] = system: leaf explants of sugarcane cultivar Q165; experiment: Shoot regeneration in leaf explants on MS medium with cytokinin and auxin; format: cell-based; details: at any given concentration of NAA; Tables 7, 8 and 10
Experimental: (§2) Top portions (about 30 cm) of shoots were cut and all leaves except the innermost 3-4 whorls were carefully removed under aseptic conditions. TS explants measuring about 1.0-2.0 mm or 5.0-6.0 mm in thickness were prepared by serial transverse sectioning of the lowermost 3-4 cm portion (just above the apical meristem) of the leaf spindle using a sharp surgical blade under sterile conditions.
as §1, with “objective. The pH of the medium was adjusted to 5.7 before autoclaving for 20 minutes at 120° C.” for “objective.”
Also, the concentrations of BA and NAA were varied in order to determine their influence upon shoot generation. […] The percentage of explants producing shoots were scored, as were the number of shoots produced per explant. […]

[5] = system: leaf explants of sugarcane cultivar 91N406; experiment: Direct shoot regeneration in leaf explants on MS medium with BA and NAA; format: cell-based; details: 91N406 explants; BA 4 μM
From the text: Table 12: Direct shoot regeneration in leaf explants (1-2 mm thick) of sugarcane cultivar 90N876 cultured on MS medium supplemented with 6-benzyladenine (BA) and α-napthaleneacetic acid (NAA) for 8 weeks. Thirty replicates, each with 10 explants cultured in top down orientation, were maintained for each treatment. Table 13: Direct shoot regeneration in leaf explants (1-2 mm thick) of sugarcane cultivar 91N406 cultured on MS medium supplemented with 6-benzyladenie (BA) and α-napthaleneacetic acid (NAA) for 8 weeks. Five replicates, each with 10 explants cultured in top down orientation were maintained for each treatment.
as §2
Murashige & Skoog (MS) nutrient formulation supplemented with 30 g/L sucrose and 7.5 g/L Difco agar were used as the basal culture medium. […]

O=C(O)COc1ccc(Cl)cc1Cl [2,4-D14]
Number of explants showing reg'n [1]: 0 | Percentage of explants regenerating [1]: 0%

Nc1cc(Cl)cc(C(=O)O)c1Cl [AD, 3 amino-2,5-dichlorobenzoic acid]
morphological abnormalities in the regenerated plants [2]: developed albinos occasionally

c1coc(CNc2ncnc3[nH]cnc23)c1 [KIN, kinetin]
effect on shoot regeneration ([3]; added after the initial embryo formation): enhanced | optimal concentration of cytokinin for shoot regeneration [4]: 4 µM

O=C(O)Cc1cccc2ccccc12 [NAA, α-napthaleneacetic acid]
optimal concentration of NAA for shoot regeneration [5]: 40 µM

COc1c(Cl)ccc(Cl)c1C(=O)O [dicamba]
regeneration with other hormone combinations [3]: unsucessful | callus growth ([3]; sorghum cultures containing dicamba): some callus growth was seen

Nc1c(Cl)c(Cl)nc(C(=O)O)c1Cl [picloram]
regeneration with other hormone combinations [3]: unsucessful

O=C(Nc1ccccc1)Nc1cnns1 [thidiazuron]
regeneration with other hormone combinations [3]: unsucessful

Source: patent US20030180952A1, “Plant regeneration” (Sugar Research & Development Corporation, priority 2000, published 2003)
